Assay results from patent US4000297A, “N-p-chlorobenzoyl tryptophane, salts and compositions thereof” (priority 1971, dated 1976).
Where a name gives a salt, the structure may show the parent alone. Read-outs that look alike come from different tables or passages of the source.

Legend:
[1] = tested on: transit through the stomach and intestine; assay: Anti-spastic activity, vegetable carbon (charcoal) test, rate of transit through the stomach and intestine; assay type: in vivo, mice; details: for Antispastic activity, in words: in vivo; for ED50: Mus musculus, 2 h; for Ratio 3/2: anti-secretive ED50 / anti-spastic ED50 (Table 3)
Experimental: Particularly marked is the anti-spastic activity which the present compounds exercise on the entire digestive system. Measured in the mouse, using the vegetable carbon test (rate of transit through the stomach and intestine), this activity is in some cases comparatively greater than the anti-secretive activity (Table 3).
(*)The antispastic activity is measured in mice of an average weight of […]
± 3 g by administering a suspension of charcoal in gum arabic and
checking after two hours whether the charcoal has reached the initial
portion of the colon. In non-treated subjects the charcoal reaches this
transit of the charcoal. Evaluation of the results is effected as
ED50 in mg/kg body weight of the animal, i.e., the dose at which the […]

[2] = tested on: gastric secretion; assay: Comparison of antisecretive activity, rats with tied pylorus, oral aqueous suspension; assay type: in vivo; details: oral; for ED50: Rattus norvegicus, po, read-out: Antisecretive activity (dose which reduces the gastric secretion by 50%)
Experimental: (*)The antisecretive activity is defined as the dose in mg/kg of body
weight of the animal, which reduces the gastric secretion by 50%. The
evaluation is effected by considering the decrease in quantity of secrete
gastric juice as compared with controls. Rats of an average weight of 200
± 20 grams are employed of which the lower part of the stomach at the
level of the pylorus is tied to collect the gastric juice during the
indicated periods. The preparations are administered orally in the form o

[3] = tested on: gastric lesions from Indomethacin; assay: Protective activity against gastric lesions due to Indomethacin; assay type: in vivo, rats; details: oral; for ED50: Rattus norvegicus, po, 4 h, read-out: Protective activity ED50
Experimental: The activity is defined as the dose in mg/kg of body weight to the animal, which prevents in 50% of the treated subjects arising of lesions due to Indomenthacin.
The protective preparations are administered orally in aqueous suspension.

[4] = Solubility; assay type: physicochemical; details: for Solubility in water: in words
[5] = Stability in conventional preservation tests and light sensitiveness; assay type: physicochemical; details: oral forms (capsules, tablets)
[6] = Tolerability in humans, prolonged oral administration; assay type: in vivo; details: several weeks, 500 to 1600 mg
[7] = Acute toxicity (DL50) in the mouse; assay type: in vivo; details: in vivo
From the text: *1 DL50 in the mouse mg/kg iv.
Examples of differences between toxicity (DL50 in
the mouse) by intravenous administration and oral
administration in mg/kg. Variation in therapeutic

[8] = tested on: gastric secretion; assay: Anti-secretive activity in the rat with lig. pylorus, iv; assay type: in vivo; details: for Therapeutic coefficient iv. 2/3: DL50 iv / ED50 iv (Table 2)
[9] = tested on: gastric secretion; assay: Anti-secretive activity in the rat by gastric stimulus, oral; assay type: in vivo; details: oral (Table 1), read-out: Activity B: anti-secretive activity ED50
Experimental: *3 Anti-secretive activity in the rat by gastric stimulus, ED50 mg/k

[10] = tested on: gastric secretion; assay: Anti-secretive activity, oral (comparison of iv and oral therapeutic coefficient); assay type: in vivo; details: oral (Table 2)
From the text: | *6 Anti-secretive activity ED50 oral | *7 Therapeutic coefficient oral

[11] = rat, in vivo, po
[12] = dog, in vivo, po
[13] = iv (Table 1), read-out: DL50 value
[14] = oral (Table 2), read-out: DL50 oral
[15] = Rattus norvegicus, iv, i.v. (Table 2), read-out: Anti-secretive activity ED50 i.v.
[16] = rat with lig. pylorus, iv (Table 1), read-out: Activity A: anti-secretive activity ED50
[17] = mouse, vegetable carbon test (Table 3), read-out: Anti-spastic activity ED50
[18] = po, charcoal after two hours, orally (later Table 3), read-out: Antispastic activity ED50
[19] = Rattus norvegicus, iv, read-out: Activity A: anti-secretive activity ED50
[20] = Rattus norvegicus, iv, read-out: Anti-secretive activity ED50 i.v.
[21] = iv, iv (Table 1), read-out: DL50 value
[22] = Rattus norvegicus, iv, read-out: Anti-secretive activity ED50

SMILES	Therapeutic coefficient iv. 2/3 ([8]; iv)	ED50 [9] [mg/kg]	ED50 [10] [mg/kg]	Therapeutic coefficient oral [10]	ED50 [1, 17] [mg/kg]	ED50 [1, 18] [mg/kg]	Ratio 3/2 [1]	ED50 ([2]; 2.5 h, 2.5 hrs) [mg/kg]	ED50 ([2]; 5 h, 5 hrs) [mg/kg]	ED50 ([2]; 10 h, 10 hrs) [mg/kg]	ED50 ([3]; Indomethacin 16 mg/kg orally) [mg/kg]	ED50 [8, 19] [mg/kg]	ED50 [8, 20] [mg/kg]	ED50 ([2]; 15 h, 15 hrs) [mg/kg]	LD50 [7, 21] [mg/kg]	other results
O=C(N[C@@H](Cc1c[nH]c2ccccc12)C(=O)O)c1ccc(Cl)cc1 [CR 501 calcium salt, N-p-chloro-benzoyl-L-tryptophane calcium salt]																Antispastic activity ED50 ([1]; charcoal after two hours, orally (later Table 3), 120 min, calcium salt, 120 min): 210 mg/kg; Antispastic activity, in words ([1]; mouse, calcium salt): more particularly effective as antispastic; Antisecretive activity (dose which reduces the gastric secretion by 50%) ([2]; 2.5 hrs, calcium salt, 150 min): 210 mg/kg; Antisecretive activity (dose which reduces the gastric secretion by 50%) ([2]; 5 hrs, calcium salt, 300 min): 165 mg/kg; Antisecretive activity (dose which reduces the gastric secretion by 50%) ([2]; 10 hrs, calcium salt, 600 min): 142 mg/kg; Antisecretive activity (dose which reduces the gastric secretion by 50%) ([2]; 15 hrs, calcium salt, 900 min): 170 mg/kg; Protective activity ED50 ([3]; Indomethacin 16 mg/kg orally, 240 min, calcium salt): 145 mg/kg/os; Solubility in acetone ([4]; acetone): soluble; Solubility in ethanol ([4]; ethanol, listed as Example 53, calcium salt): soluble; Solubility in methanol ([4]; methanol, listed as Example 53, calcium salt): soluble; Solubility in water ([4]; listed as Example 53, calcium salt): Very slightly soluble; Light sensitiveness [5]: absence of light sensitiveness; Stability on conventional preservation tests [5]: thorough stability; Side effects in humans [6]: does not lead to any specific side effect
O=C(N[C@@H](Cc1c[nH]c2ccccc12)C(=O)O)c1ccc(Cl)cc1 [Ex.18 (CR501), N-p-chloro-benzoyl-L-tryptophane]	1.9	110	150	7.3	82	248	1.7	171	143	150	234					LD50 [7, 13]: 263 mg/kg; LD50 [7, 14]: 1100 mg/kg; ED50 ([8]; Rattus norvegicus, iv, compared with anti-spastic activity (Table 3), read-out: Anti-secretive activity ED50): 139 mg/kg; ED50 [8, 15]: 139 mg/kg; ED50 [8, 16]: 139 mg/kg; Antispastic activity, in words ([1]; mouse): active as antispastic; Start of antisecretive activity from administration [2]: < 5 h; Antisecretive activity (dose which reduces the gastric secretion by 50%) ([2]; 15 hrs, 900 min): 361 mg/kg; Extent in time of antisecretive activity ([2]; with a gradual sinking): up to 15 hours; Protective activity against Indomethacin lesions, in words [3]: efficient activity in preventing gastric lesions; Solubility in water ([4]; listed as CR 501): water-insoluble; Solubility in water ([4]; listed as CR501): insoluble in water; Acute and chronical toxicity [11]: without exhibiting any appreciable symptom of toxicity; Acute and chronical toxicity [12]: without exhibiting any appreciable symptom of toxicity
Cc1ccc(C(=O)N[C@@H](Cc2c[nH]c3ccccc23)C(=O)O)cc1 [Ex.21 (CR510), N-p-toluyl-L-tryptophane]	3.8	318	346	5.8		487		490	407	346	382	184	184	583		LD50 [7, 13]: 700 mg/kg; LD50 [7, 14]: 2000 mg/kg
COc1ccc(COC(=O)N[C@@H](Cc2c[nH]c3ccccc23)C(=O)O)cc1 [Ex.32 (CR462), N-p-methoxy-carbobenzoxy-L-tryptophane]	3.2	114	142												430	ED50 [8, 15]: 133 mg/kg; ED50 [8, 16]: 146 mg/kg
O=C(N[C@@H](Cc1c[nH]c2ccccc12)C(=O)O)OCc1ccc(Cl)cc1 [Ex. 1 (CR449), N-p-chloro-carbobenzoxy-L-tryptophane]	1.8	127	154	9.1	72		1.8	121	98	115	182	131	131	155	240	LD50 ([7]; po, oral (Table 2), read-out: DL50 oral): 1410 mg/kg; ED50 [8, 22]: 131 mg/kg
O=C(N[C@@H](Cc1c[nH]c2ccccc12)C(=O)O)OCc1ccc(Br)cc1 [Ex. 6 (CR451), N-p-bromo-carbobenzoxy-L-tryptophane]	1.9	77	133			275		180	148		335	92.1	99	405	125	LD50 ([7]; iv, iv (Table 2), read-out: DL50 iv): 185 mg/kg; Antisecretive activity (dose which reduces the gastric secretion by 50%) ([2]; 10 hrs, listed as CR 451 (Ex. 6), 600 min): 133 mg/kg
Cc1ccc(COC(=O)N[C@@H](Cc2c[nH]c3ccccc23)C(=O)O)cc1 [Ex. 9 (CR454), N-p-methyl-carbobenzoxy-L-tryptophane]	1.9	125	268		120		1.6					187	166		320	ED50 [8, 22]: 187 mg/kg
